We go through one compound from patent publication US9975906B2, “Tricyclic heterocycle derivatives having HIV replication inhibitory effect” (Shionogi & Co., Ltd., priority 2014, dated 2018).

One series concerns HIV (HTLV-IIIB strain). The series is described as follows: HIV Replication Inhibition Assay. The series is classed as cell-based. As to conditions: Human immunodeficiency virus 1, MT4, 96 h, MT-4 cells, cultured four days, MTT, concentration at which cell cytotoxicity by virus is inhibited 50%. The procedure: HIV (HTLV-IIIB strain) persistent infected human T cell strain Molt-4 clone 8 was cultured in 10% Fetal Bovine Serum-containing RPMI-1640 medium and the supernatant was filtered, then the virus titer was measured and the solution was stored at −80° C. Each anti-human immunodeficiency virus active substance was diluted with the above cultured medium to the designated concentration, which was dispensed into 96 well micro plate by 50 μL. Next, a MT-4 cell suspended liquid was dispensed by 100 μL (2.5×10^4 cells), then the above HIV-containing supernatant diluted with the above cultured medium was added thereto by 50 μl (60 pfu (plaque forming unit)).
The obtained mixture was cultured at 37° C. in CO2 incubator for four days, then 3-(4,5-dimethylthiazole-2-yl)-2,5-diphenyltetrazolynium bromide (MTT) 5 mg/mL in PBS was added to each well by 30 μL, followed by 1 hr-cultivation. In this step, as formazan was precipitated by reduction of MTT in living cells, the cell supernatant was removed from all was by 150 μL, then a 150 μL of solution (10% Triton X-100 and 0.4% (v/v)-HCl containing isopropanol) was added thereto, followed by shaking with a plate mixer, to elute formazan. The formazan was measured with a microreader at OD: 560 nm and 690 nm (reference wavelength) and the result was compared with the reference. EC50 means the compound concentration at which cell cytotoxicity by virus is inhibited 50%.

The target in a further series is T1, CYP1A2 (Homo sapiens, UniProt P05177).
T1 construct: enzyme, pooled human hepatic microsome 0.2 mg protein/mL; from tissue
T1 sequence (P05177 1-516): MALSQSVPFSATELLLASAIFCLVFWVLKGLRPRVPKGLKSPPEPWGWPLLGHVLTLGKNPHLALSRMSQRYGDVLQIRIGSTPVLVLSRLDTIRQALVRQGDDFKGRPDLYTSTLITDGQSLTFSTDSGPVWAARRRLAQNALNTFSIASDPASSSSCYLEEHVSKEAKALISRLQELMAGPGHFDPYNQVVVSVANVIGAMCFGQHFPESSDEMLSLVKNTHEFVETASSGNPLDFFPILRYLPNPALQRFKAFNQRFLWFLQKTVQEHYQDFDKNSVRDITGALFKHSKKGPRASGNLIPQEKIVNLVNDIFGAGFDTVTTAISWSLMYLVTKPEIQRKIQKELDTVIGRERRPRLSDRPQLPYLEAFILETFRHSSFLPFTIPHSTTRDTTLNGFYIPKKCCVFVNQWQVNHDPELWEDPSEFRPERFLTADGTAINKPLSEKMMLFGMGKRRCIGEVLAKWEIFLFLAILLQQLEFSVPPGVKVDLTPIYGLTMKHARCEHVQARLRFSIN
The series is described as follows: CYP Inhibition Assay (7-ethoxyresorufin O-deethylation). The series is classed as in vitro ADME. The settings on record: pooled human hepatic microsome, 0.5 μmol/L ethoxyresorufin, 15 minutes, 37° C. The procedure: Using commercially available pooled human hepatic microsome, and employing, as markers, 7-ethoxyresorufin O-deethylation (CYP1A2), tolbutamide methyl-hydroxylation (CYP2C9), mephenytoin 4'-hydroxylation (CYP2C19), dextromethorphan O-demethylation (CYP2D6), and terfenadine hydroxylation (CYP3A4) as typical substrate metabolism reactions of human main five CYP enzyme forms (CYP1A2, 2C9, 2C19, 2D6, 3A4) an inhibitory degree of each metabolite production amount by a test compound was assessed. […] After the centrifugation at 3000 rpm for 15 minutes, resorufin (CYP1A2 metabolite) in the supernatant was quantified by a fluorescent multilabel counter and tolbutamide hydroxide (CYP2C9 metabolite), mephenytoin 4' hydroxide (CYP2C19 metabolite), dextrorphan (CYP2D6 metabolite), and terfenadine alcohol (CYP3A4 metabolite) were quantified by LC/MS/MS. A reaction system containing only DMSO which is a solvent for dissolving a drug was adopted as a control (100%), and the remaining activity (%) was calculated, then IC50 was calculated by reverse presumption with a logistic model using a concentration and an inhibition rate.

A short description of a further series: Powder Solubility Test. In kind it is physicochemical. As to conditions: thermodynamic from solid, shaken 1 hour at 37° C. As for the experimental part:
Appropriate amounts of the test substances are put into appropriate containers. To the respective containers are added 200 μL of JP-1 fluid (sodium chloride 2.0 g, hydrochloric acid 7.0 mL and water to reach 1000 mL), 200 μL of JP-2 fluid (phosphate buffer (pH 6.8) 500 mL and water 500 mL), and 200 μL of 20 mmol/L TCA (sodium taurocholate)/JP-2 fluid (TCA 1.08 g and JP-2 fluid to reach […]). IN the case that all amount of the test compound is dissolved after the addition of the test fluid, the test compound is added as appropriate. The containers are sealed, and shaken for 1 hour at 37° C. The mixtures are filtered, and 100 μL of methanol is added to each of he filtrate […] so that the filtrates are two-fold diluted. The dilution ratio may be changed if necessary. The dilutions are observed for bubbles and precipitates, and then the containers are sealed and shaken. Quantification is performed by HPLC with an absolute calibration method.

≈ marks a conversion by molar mass, not a printed value. Like-named read-outs stand apart in the source and are kept apart here.

The EC50 is the midpoint of the concentration-response curve. High values mean lower potency in that assay, low ones higher potency in that assay. For orientation: IC50 means the concentration that inhibits the measured activity by half. For the compound `Cc1ccc(-c2c([C@H](OC(C)(C)C)C(=O)O)c(C)c3c4c2cc(-c2ccnc(-c5ccc6c(cnn6C)c5)c2)n4CCN3CCN(C)C)cc1` [Compound I-034], in the series with HIV (HTLV-IIIB strain), the EC50 is 2.4 nM. In addition, the IC50 against CYP1A2 was above 20000 nM. The solubility at 1 h in “Powder Solubility Test” (aqueous buffer, JP-2 fluid (phosphate buffer pH 6.8), read-out: powder solubility, JP-2 fluid) is 0.603 µg/mL (≈ 0.899 µM); in the series “Powder Solubility Test” (pH 1.2, simulated gastric fluid, JP-1 fluid, read-out: powder solubility, JP-1 fluid) it was above 1000 µg/mL; in “Powder Solubility Test” (pH 6.8, fassgf or other biorelevant, 20 mmol/L TCA (sodium taurocholate)/JP-2 fluid, read-out: powder solubility, 20 mmol/L TCA/JP-2 fluid), above 1000 µg/mL.
